# Laboratory results: patent US11472798B2 (Mission Therapeutics Limited, priority 2014, dated 2022)
# Target: T1, UCHL1 (Homo sapiens, UniProt P09936)
# T1 construct: made in house; host or cells: HEK293T
# T1 sequence (P09936 1-223): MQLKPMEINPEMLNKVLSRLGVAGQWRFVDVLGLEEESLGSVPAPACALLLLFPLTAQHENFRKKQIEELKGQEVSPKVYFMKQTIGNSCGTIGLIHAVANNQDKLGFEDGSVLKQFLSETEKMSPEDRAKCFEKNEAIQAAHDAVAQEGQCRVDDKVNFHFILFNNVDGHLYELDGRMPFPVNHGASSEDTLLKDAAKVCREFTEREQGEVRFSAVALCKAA
# Assay: UCHL1 biochemical IC50 assay (fluorescence polarisation)
# Conditions: 30 min enzyme/compound pre-incubation at room temp, read after 2 hr incubation, read-out: Activity range (UCHL1 biochemical IC50 assay)
# In short: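 Fluorescence polarisation (ex 540/em 590 nm) of 50 nM TAMRA-labelled ubiquitin–peptide isopeptide substrate was read at time zero and after 2 h at room temperature. Compounds (100–0.03 μM final, in duplicate) were given 30 min preincubation with N-FLAG UCHL1 from HEK293T cells in pH 7.5 Tris buffer.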
row,SMILES,IC50
1,"N#CN1CCC(C(=O)Nc2ccc(Cl)cn2)C1 (stereo not shown) [Example 25, N-(5-chloropyridin-2-yl)-1-cyano-pyrrolidine-3-carboxamide]",10000 to 30000 nM
2,"N#CN1CC[C@H](C(=O)Nc2ncc(-c3ccccn3)s2)C1 [Example 70, (S)-1-cyano-N-(5-(pyridin-2-yl)thiazol-2-yl)pyrrolidine-3-carboxamide]",1000 to 10000 nM
3,"N#CN1CC[C@H](C(=O)Nc2cc(-c3ccccc3)ccn2)C1 [Example 268, (S)-1-cyano-N-(4-phenylpyridin-2-yl)pyrrolidine-3-carboxamide]",1000 to 10000 nM
4,"Cc1ccc2nc(NC(=O)C3CCN(C#N)C3)sc2c1 (stereo not shown) [Example 19, 1-cyano-N-(6-methylbenzo[d]thiazol-2-yl)pyrrolidine-3-carboxamide]",1000 to 10000 nM
5,"Cc1noc(C)c1-c1cnc2nc(NC(=O)[C@H]3CCN(C#N)C3)sc2c1 [Example 285, (S)-1-cyano-N-(6-(3,5-dimethylisoxazol-4-yl)thiazolo[4,5-b]pyridin-2-yl)pyrrolidine-3-carboxamide]",1000 to 10000 nM
6,"N#Cc1ccc(O[C@H]2CCOC2)cc1-n1cnc(NC(=O)[C@H]2CCN(C#N)C2)c1 [Example 248, (S)-1-cyano-N-(1-(2-cyano-5-(((S)-tetrahydrofuran-3-yl)oxy)phenyl)-1H-imidazol-4-yl)pyrrolidine-3-carboxamide]",1000 to 10000 nM
7,"C[C@H]1[C@@H](C(=O)Nc2ncc(-c3ccccc3Cl)s2)CCN1C#N [Example 77, (2S,3S)—N-(5-(2-chlorophenyl)thiazol-2-yl)-1-cyano-2-methylpyrrolidine-3-carboxamide]",1000 to 10000 nM
8,"CNC(=O)c1ccc2cnc(NC(=O)[C@H]3CCN(C#N)C3)cc2c1 [Example 260, (S)-3-(1-cyanopyrrolidine-3-carboxamido)-N-methylisoquinoline-6-carboxamide]",1000 to 10000 nM
9,"N#CN1CC[C@H](C(=O)Nc2cc(-c3ccncc3)ncn2)C1 [Example 274, (S)-1-cyano-N-(6-(pyridin-4-yl)pyrimidin-4-yl)pyrrolidine-3-carboxamide]",1000 to 10000 nM
10,"Cc1cccc(-n2cnc(NC(=O)[C@H]3CCN(C#N)C3)c2)n1 [Example 175, (S)-1-cyano-N-(1-(6-methylpyridin-2-yl)-1H-imidazol-4-yl)pyrrolidine-3-carboxamide]",1000 to 10000 nM
11,"COc1ccc(-c2cc(NC(=O)C3CCN(C#N)C3)on2)cc1 (stereo not shown) [Example 14, 1-cyano-N-(3-(4-methoxyphenyl)isoxazol-5-yl)pyrrolidine-3-carboxamide]",1000 to 10000 nM
12,"CNC(=O)c1ccccc1-n1cnc(NC(=O)[C@H]2CCN(C#N)C2)c1 [Example 157, (S)-1-cyano-N-(1-(2-(methylcarbamoyl)phenyl)-1H-imidazol-4-yl)pyrrolidine-3-carboxamide]",1000 to 10000 nM
13,"N#CN1CCC(C(=O)Nc2ccc3c(cnn3Cc3ccccc3)c2)C1 (stereo not shown) [Example 39, N-(1-benzyl-1H-indazol-5-yl)-1-cyano-pyrrolidine-3-carboxamide]",10000 to 30000 nM
14,"Cc1noc(C)c1-c1cc2sc(NC(=O)[C@H]3CCN(C#N)C3)nc2cn1 [Example 296, (S)-1-cyano-N-(6-(3,5-dimethylisoxazol-4-yl)thiazolo[4,5-c]pyridin-2-yl)pyrrolidine-3-carboxamide]",10000 to 30000 nM
15,"N#CN1CC[C@H](C(=O)Nc2ncc(-c3ccc(F)c(F)c3)s2)C1 [Example 67, (S)-1-cyano-N-(5-(3,4-difluorophenyl)thiazol-2-yl)pyrrolidine-3-carboxamide]",< 1000 nM
16,"N#CN1CC[C@H](C(=O)Nc2cn3cc(-c4cnco4)ccc3n2)C1 [Example 276, (S)-1-cyano-N-(6-(oxazol-5-yl)imidazo[1 ,2-a]pyridin-2-yl)pyrrolidine-3-carboxamide]",< 1000 nM
17,"N#Cc1ccc(OCCCN2CCOCC2)cc1-n1cnc(NC(=O)[C@H]2CCN(C#N)C2)c1 [Example 246, (S)-1-cyano-N-(1-(2-cyano-5-(3-morpholinopropoxy)phenyl)-1H-imidazol-4-yl)pyrrolidine-3-carboxamide]",< 1000 nM
18,"N#CN1CC[C@H](C(=O)Nc2cnc(N3CCCC3)cn2)C1 [Example 108, (S)-1-cyano-N-(5-(pyrrolidin-1-yl)pyrazin-2-yl)pyrrolidine-3-carboxamide]",1000 to 10000 nM
19,"N#Cc1ccc(C2CC2)cc1-n1cnc(NC(=O)[C@H]2CCN(C#N)C2)c1 [Example 306, (S)-1-cyano-N-(1-(2-cyano-5-cyclopropylphenyl)-1H-imidazol-4-yl)pyrrolidine-3-carboxamide]",< 1000 nM
20,"N#CN1CC[C@H](C(=O)Nc2cn(CCc3ccccc3)cn2)C1 [Example 147, (S)-1-cyano-N-(1-phenethyl-1H-imidazol-4-yl)pyrrolidine-3-carboxamide]",< 1000 nM
21,"CC1CC(C(=O)Nc2ncc(-c3ccccc3)s2)CN1C#N (mixture of isomers) [Example 88, 1-cyano-5-methyl-N-(5-phenylthiazol-2-yl)pyrrolidine-3-carboxamide]",1000 to 10000 nM
22,"N#CN1CC[C@H](C(=O)Nc2cnc3ccccc3c2)C1 [Example 272, (S)-1-cyano-N-(quinolin-3-yl)pyrrolidine-3-carboxamide]",1000 to 10000 nM
23,"N#CN1CC[C@H](C(=O)Nc2cn3ccc(Br)cc3n2)C1 [Example 50, (S)-N-(7-bromoimidazo[1,2-a]pyridin-2-yl)-1-cyano-pyrrolidine-3-carboxamide]",1000 to 10000 nM
24,"N#CN1CCC(C(=O)Nc2ncc(-c3ccccc3N)s2)C1 (stereo not shown) [Example 109, N-(5-(2-aminophenyl)thiazol-2-yl)-1-cyanopyrrolidine-3-carboxamide]",1000 to 10000 nM
25,"N#CN1CCC(C(=O)Nc2ncc(-c3cccnc3)s2)C1 (stereo not shown) [Example 112, 1-cyano-N-(5-(pyridin-3-yl)thiazol-2-yl)pyrrolidine-3-carboxamide]",< 1000 nM

# Continued, values first:
row,IC50,SMILES
1,< 1000 nM,"C[C@H]1[C@@H](C(=O)Nc2ncc(-c3ccc(F)cc3)s2)CCN1C#N [Example 73, (2S,3S)-1-cyano-N-(5-(4-fluorophenyl)thiazol-2-yl)-2-methylpyrrolidine-3-carboxamide]"
2,< 1000 nM,"Cc1oncc1-c1ccc2nc(NC(=O)[C@H]3CCN(C#N)C3)sc2c1 [Example 126, (S)-1-cyano-N-(6-(5-methylisoxazol-4-yl)benzo[d]thiazol-2-yl)pyrrolidine-3-carboxamide]"
3,< 1000 nM,"N#Cc1ccc(-n2cnc(NC(=O)[C@H]3CCN(C#N)C3)c2)cc1OC(F)(F)F [Example 310, (S)-1-cyano-N-(1-(4-cyano-3-(trifluoromethoxy)phenyl)-1H-imidazol-4-yl)pyrrolidine-3-carboxamide]"
4,< 1000 nM,"N#Cc1ccc(-n2cnc(NC(=O)[C@H]3CCN(C#N)C3)c2)cc1 [Example 177, (S)-1-cyano-N-(1-(4-cyanophenyl)-1H-imidazol-4-yl)pyrrolidine-3-carboxamide]"
5,< 1000 nM,"Cc1noc(C)c1-c1ccc2nc(NC(=O)[C@H]3CCN(C#N)C3)sc2n1 [Example 286, (S)-1-cyano-N-(5-(3,5-dimethylisoxazol-4-yl)thiazolo[5,4-b]pyridin-2-yl)pyrrolidine-3-carboxamide]"
6,< 1000 nM,"CNC(=O)c1ccc(-c2cnc(NC(=O)[C@H]3CCN(C#N)C3)s2)cc1 [Example 64, (S)-1-cyano-N-(5-(4-(methyl-carbamoyl)phenyl)thiazol-2-yl)pyrrolidine-3-carboxamide]"
7,< 1000 nM,"N#CN1CC[C@H](C(=O)Nc2cn(-c3cccnc3)cn2)C1 [Example 181, (S)-1-cyano-N-(1-(pyridin-3-yl)-1H-imidazol-4-yl)pyrrolidine-3-carboxamide]"
8,< 1000 nM,"N#CN1C[C@@H](C(F)(F)F)[C@H](C(=O)Nc2ncc(-c3ccccc3)s2)C1 [Example 281, (3S, 4S)-1-cyano-N-(5-phenylthiazol-2-yl)-4-(trifluoromethyl)pyrrolidine-3-carboxamide]"
9,< 1000 nM,"Cc1c(-c2cnn(C)c2)ccc2nc(NC(=O)[C@H]3CCN(C#N)C3)sc12 [Example 139, (S)-1-cyano-N-(7-methyl-6-(1-methyl-1H-pyrazol-4-yl)benzo[d]thiazol-2-yl)pyrrolidine-3-carboxamide]"
10,< 1000 nM,"C[C@@H](c1ccccc1)n1cnc(NC(=O)[C@H]2CCN(C#N)C2)c1 [Example 166, (S)-1-cyano-N-(1-((S)-1-phenylethyl)-1H-imidazol-4-yl)pyrrolidine-3-carboxamide]"
11,< 1000 nM,"N#CN1CC[C@H](C(=O)Nc2ncc(N3CCOCC3)s2)C1 [Example 91, (S)-1-cyano-N-(5-morpholinothiazol-2-yl)pyrrolidine-3-carboxamide]"
12,< 1000 nM,"Cc1oncc1-c1cccc(-c2ccnc(NC(=O)[C@H]3CCN(C#N)C3)c2)c1 [Example 290, (S)-1-cyano-N-(4-(3-(5-methylisoxazol-4-yl)phenyl)pyridin-2-yl)pyrrolidine-3-carboxamide]"
13,< 1000 nM,"N#Cc1cccc(-n2cnc(NC(=O)[C@H]3CCN(C#N)C3)c2)c1 [Example 180, (S)-1-cyano-N-(1-(3-cyanophenyl)-1H-imidazol-4-yl)pyrrolidine-3-carboxamide]"
14,< 1000 nM,"COc1ccccc1-n1cnc(NC(=O)[C@H]2CCN(C#N)C2)c1 [Example 160, (S)-1-cyano-N-(1-(2-methoxyphenyl)-1H-imidazol-4-yl)pyrrolidine-3-carboxamide]"
15,< 1000 nM,"Cc1noc(C)c1-c1ccc2nc(NC(=O)[C@H]3CCN(C#N)C3)sc2c1C [Example 138, (S)-1-cyano-N-(6-(3,5-dimethylisoxazol-4-yl)-7-methylbenzo[d]thiazol-2-yl)pyrrolidine-3-carboxamide]"
